Test results taken from patent US20060222671A1, “Dermatological compositions and salts for the treatment of dermatological diseases” (Astion Development A/S, priority 2005, published 2006).
“Also recorded” adds a separate entry of the source.

Experiments:
[1] = tested on: inflammation following treatment with cryotherapy; conditions: topical; moderate to severe inflammation following cryotherapy; cited from earlier work
skin = conditions: in vivo; cited from earlier work
human skin inflammation = conditions: topical treatment; cited from earlier work
[2] = tested on: oxazolone induced ear inflammation in mice; assay: Oxazolone induced mouse ear oedema assay; assay type: in vivo; conditions: for inhibition of the formation of ear oedema: Example 7: 500 μg/ear dissolved in 96% ethanol; for % inhibition of ear swelling: 24 hours after challenge
Description: This screening method is commonly employed for screening and evaluation of anti-inflammatory drugs, in particular with respect to the inflammation seen in contact dermatitis. Betamethasone-17 valerate was used as the positive control. […] Betamethasone was administered topically in quantities of 20 μg/ear. Betamethasone was applied in the commercial form Celeston valerate® 0.1%. All groups were immunised with 20 μl oxazolone, 1.6% in ethanol 96% (w/v) on the left and the right ear. The ear thickness of all mice on both the left and right side was measured with an electronic measuring gauge. All groups were challenged with 20 μl oxazolone (1.6% in ethanol 96% (w/v)) on the left ear and the right ear. Vehicle (acetone) or test article solutions were administered 20 minutes before and 20 minutes after oxazolone challenge. 24 hours after oxazolone challenge the ear thickness of all mice was measured with an electronic measuring gauge. Mean thickness of the ears and standard deviations were calculated. Ear swelling was calculated as the difference between the ear thickness day 7 and day 8. […] Differences in ear swelling between the vehicle treated group and the other groups were tested for significance employing a non-parametric statistical method of analysis, the Mann-Whitney U test. The required level of significance was p<0.05. […] Both test articles were applied in a dose of 500 μg/ear and dissolved in 96% ethanol. Betamethasone, as the positive control was administered topically in quantities of 20 μg/ear.

undamaged skin area = assay: Acute dermal irritation; assay type: in vivo; conditions: for cutaneous reactions (erythema and oedema): 0.5 mL patch
Description: The sample was applied at a dose of 0.5 mL, on an undamaged skin area of the right flank of each animal. The patch was secured in position with a strip of surgical adhesive tape.
On the left flank an untreated area served as the control.
The skin reactions were evaluated after 1 hour and then after 24, 48 and 72 hours following removal of the patch according to the following grading scale:
Erythema (0: No erythema, 1: Slight (barely perceptible) erythema, 2: Definite erythema, 3: Moderate to severe erythema, 4: Severe erythema (purple) with formation of eschars (deep lesions) preventing erythema from being grading).
Oedema (0: No oedema, 1: Very slight (barely perceptible) oedema, 2: Slight oedema (contour clearly defined), 3: Moderate oedema (thickness), 4: Severe oedema (thickness greater than 1 mm, surface larger than zone of application)

guinea pig skin [3] = conditions: in vivo
Description: Test for photo toxicity is carried out to evaluate the risk of cutaneous reactions on the guinea pig following exposure to ultraviolet radiation.
Thirty minutes after the treatment, the animals were subjected to ultraviolet radiations (UV-B first and then UV-A).
The animals were irradiated with the irradiation source VLX 3W (Biotronic, Vilbert Lourmat) at the Maximal Non Erythemateous Dose (M.N.E.D) 7000 J/cm2 for UV-A and 150 mJ/cm2 for the UV-B.
A macroscopic evaluation of the cutaneous reactions (erythema and oedema) was conducted 24 and 48 hours after irradiation.

[4] = 25° C.; cited from earlier work
[5] = biological target: T1, anandamide hydrolase (a fatty acid amide hydrolase) (Homo sapiens, UniProt O00519); conditions: in neurons; cited from earlier work
T1 construct: host or cells: neurons
T1 sequence (O00519 1-579): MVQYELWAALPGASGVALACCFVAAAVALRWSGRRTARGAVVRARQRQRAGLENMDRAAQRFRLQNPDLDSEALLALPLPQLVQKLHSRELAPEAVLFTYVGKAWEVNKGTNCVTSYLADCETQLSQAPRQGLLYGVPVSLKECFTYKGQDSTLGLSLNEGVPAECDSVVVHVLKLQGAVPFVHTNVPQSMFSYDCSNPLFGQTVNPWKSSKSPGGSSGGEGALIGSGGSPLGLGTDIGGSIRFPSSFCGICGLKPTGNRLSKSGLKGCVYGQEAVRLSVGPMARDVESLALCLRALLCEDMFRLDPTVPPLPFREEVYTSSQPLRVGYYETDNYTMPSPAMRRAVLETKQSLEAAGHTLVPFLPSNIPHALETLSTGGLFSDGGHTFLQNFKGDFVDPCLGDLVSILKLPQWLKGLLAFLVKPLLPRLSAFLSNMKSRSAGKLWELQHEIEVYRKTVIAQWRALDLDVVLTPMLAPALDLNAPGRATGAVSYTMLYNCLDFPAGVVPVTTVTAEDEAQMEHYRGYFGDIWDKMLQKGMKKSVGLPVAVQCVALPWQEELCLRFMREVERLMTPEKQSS

NF-kappaB activation = conditions: in inflammatory cells; cited from earlier work
activated monocytes = conditions: cited from earlier work
Phosphodiesterase PDE IV = Phosphodiesterase PDE IV enzyme assay (MDS Pharma Service No. 154000); assay type: biochemical
Description: (§1) The enzyme assays were conducted by MSD Pharma Services.

[6] = biological target: T2, Protein Tyrosine Kinase, SYK (Homo sapiens, UniProt P43405); assay: Protein Tyrosine Kinase SYK enzyme assay (MDS Pharma Service No. 155761); assay type: biochemical
T2 construct: purchased MDS Pharma Services (contract assay) 155761
Description: as §1

[7] = biological target: T3, Protein Tyrosine Kinase, ZA70 (ZAP-70) (Homo sapiens, UniProt P43403); assay: Protein Tyrosine Kinase ZA70 (ZAP-70) enzyme assay (MDS Pharma Service No. 155987); assay type: biochemical
T3 construct: purchased MDS Pharma Services (contract assay) 155987
T3 sequence (P43403 1-619): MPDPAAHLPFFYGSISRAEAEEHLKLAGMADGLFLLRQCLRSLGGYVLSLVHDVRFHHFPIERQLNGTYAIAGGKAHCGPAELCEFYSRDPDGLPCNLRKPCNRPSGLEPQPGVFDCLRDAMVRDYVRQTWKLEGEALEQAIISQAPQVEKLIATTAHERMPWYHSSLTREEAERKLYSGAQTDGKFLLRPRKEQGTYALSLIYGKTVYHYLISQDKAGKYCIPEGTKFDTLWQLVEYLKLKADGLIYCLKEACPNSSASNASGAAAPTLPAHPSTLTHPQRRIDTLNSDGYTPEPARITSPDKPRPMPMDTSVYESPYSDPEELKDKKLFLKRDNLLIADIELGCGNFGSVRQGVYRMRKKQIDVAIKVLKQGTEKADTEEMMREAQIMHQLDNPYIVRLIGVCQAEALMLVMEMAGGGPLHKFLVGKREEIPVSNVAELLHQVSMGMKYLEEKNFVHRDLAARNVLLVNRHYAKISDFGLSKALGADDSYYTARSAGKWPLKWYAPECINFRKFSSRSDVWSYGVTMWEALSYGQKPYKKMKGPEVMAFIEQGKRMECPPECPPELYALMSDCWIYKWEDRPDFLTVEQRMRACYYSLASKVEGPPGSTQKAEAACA
Description: as §1

guinea pig skin [8] = conditions: in vivo; remark: listed apart in the source
Description: Test for skin sensitization is carried out according to the Magnusson and Kligman method (J. Invest. Dermatol. 1969. 52, 268-276) and in accordance with O.E.C.D. Guideline No. 406 of Jul. 17th, 1992, and the test method B.6 of the 96/54 E.E.C Directive.
Albino guinea pigs of Dunkin-Hartley strain were exposed to the test item after an acclimatisation period of at least five days.
The Maximum Non Necrotizing Concentration (M.N.N.C.) was determined by injecting by intradermal route the following concentrations: 2.5%, 1.25%, 0.625%, 0.3125%, 0.1562% and 0.078% diluted in physiological saline solution.
Pre-Maximum Non Irritant Concentration (pre-M.N.I.C.) was determined by application of the test item under an occlusive dressing during 24 hours, at the following concentrations: 2.5%, 1.25%, 0.625%, 0.3125% diluted in physiological saline solution.
Maximum Non Irritant Concentration (M.N.I.C.) was determined by initially establishing an induction phase by intradermal injection with a physiological saline solution and by topical application of distilled water followed by a 18-day rest phase. In the challenge phase where the test item is under occlusive dressing for 24 hours, the test item was applied to the skin of the Albino guinea pigs at the following concentrations: 2.5%, 1.25%, 0.625%, 0.3125% diluted in physiological saline solution.

[9] = tested on: chronic stable plaque psoriasis; conditions: topical 1%; cited from earlier work
contact dermatitis = conditions: topically applied; cited from earlier work
[10] = monoethanolamine salt 5% by weight in water
[11] = Oxaprozin as the monoethanolamine salt

## CCC(=O)O[C@]1(C(=O)CCl)[C@@H](C)C[C@H]2[C@@H]3CCC4=CC(=O)C=C[C@]4(C)[C@@]3(F)[C@@H](O)C[C@@]21C [clobetasol propionate]
[1]
  relief of erythema and oedema: proved to have effect

## CC(=O)Oc1ccccc1C(=O)O [aspirin]
skin
  cutaneous side effects: may induce urticarial reactions

## CC(C(=O)O)c1cccc(C(=O)c2ccccc2)c1 (stereo not shown) [Ketoprofen]
skin
  cutaneous side effects: major contact allergens

## CC(C(=O)O)c1ccc(-c2ccccc2)c(F)c1 (stereo not shown) [flubiprofen]
Human skin inflammation
  effect on human skin inflammation: reduces human skin inflammation

## CN1C(C(=O)Nc2ccccn2)=C(O)c2ccccc2S1(=O)=O [piroxicam]
skin
  cutaneous side effects: can lead to phototoxic or photo allergic dermatitis

## O=C(O)CCc1nc(-c2ccccc2)c(-c2ccccc2)o1 [Oxaprozin, 4,5-diphenyl-2-oxazole-propionic acid]
[2]
  inhibition of the formation of ear oedema: statistically significant inhibition of the formation of ear oedema
Undamaged skin area; monoethanolamine salt 2.5% by weight in water, 1, 24, 48, 72 hours
  cutaneous reactions (erythema and oedema): no cutaneous reactions (erythema and oedema) were observed
Undamaged skin area; [10]
  reversibility of erythema: totally reversible between the 2nd and the 3rd day of the test
  cutaneous reactions (erythema and oedema): only a slight erythema on the treated area at the reading time 1 hour
Guinea pig skin [3]
  photo toxicity: not phototoxic
[4]
  solubility in water: about 1.7 mg/ml
[5]
  inhibition of anandamide hydrolase: inhibits
NF-kappaB activation
  inhibition of NF-kappaB activation: inhibits
Activated monocytes
  apoptosis of activated monocytes: induces apoptosis of activated monocytes in a dose-dependent manner

## O=C(O)CCc1nc(-c2ccccc2)c(-c2ccccc2)o1 [Monoethanolamine Oxaprozin]
Phosphodiesterase PDE IV; [11]
  IC50: 22 µM
[6]; [11]
  IC50: 28 µM
[7]; [11]
  IC50: 38 µM
[2]; 250 μg/ear topical in acetone, 20 min before and after challenge
  % inhibition of ear swelling: 53%
[2]; 500 μg/ear topical in acetone, 20 min before and after challenge
  % inhibition of ear swelling: 77%
[2]; 1000 μg/ear topical in acetone, 20 min before and after challenge
  % inhibition of ear swelling: 95%
[2]; 250-1000 μg/ear
  inhibition of ear swelling (in words): dose dependent and highly significant inhibition of ear swelling
[2]; highest dose (1000 μg/ear) vs Betamethasone 17-valerate 20 μg/ear
  inhibition of ear swelling compared with positive control: significantly stronger than the inhibition obtained with Betamethasone 17-valerate
Guinea pig skin [8]
  skin sensitization: not causing sensitization reactions

## COc1ccc2c(c1)c(CC(=O)O)c(C)n2C(=O)c1ccc(Cl)cc1 [indomethacin]
[1]
  relief of erythema and oedema: poor effect in relieving the erythema and oedema
[9]
  effect on chronic stable plaque psoriasis: no effect
Contact dermatitis
  response in animal model of contact dermatitis: shown to respond
skin
  cutaneous side effects: may induce urticarial reactions

## CCCCC(=O)O[C@]1(C(=O)CO)[C@@H](C)C[C@H]2[C@@H]3CCC4=CC(=O)C=C[C@]4(C)[C@@]3(F)[C@@H](O)C[C@@]21C [Betamethasone 17-valerate]
[2]; 20 μg/ear topical (Celeston valerate 0.1%)
  % inhibition of ear swelling: 66%

## O=C(O)Cc1ccccc1Nc1c(Cl)cccc1Cl [Diclofenac]
skin
  cutaneous side effects: irritant-type contact dermatitis may develop

## CCCCOc1ccc(CC(=O)NO)cc1 [Bufexamac]
Phosphodiesterase PDE IV
  inhibitory effect on the PDE-IV enzyme: exhibits inhibitory effect
[6]
  inhibitory effect on Protein Tyrosine Kinase SYK: only exhibits inhibitory effect on the PDE-IV enzyme
[7]
  inhibitory effect on Protein Tyrosine Kinase ZAP-70: only exhibits inhibitory effect on the PDE-IV enzyme
[2]
  inhibition of the formation of ear oedema: did not inhibit the formation of ear oedema at all
skin
  cutaneous side effects: reported to cause contact allergy; also recorded: major contact allergens
